# According to patent US20050059014A1, “Analytical platform and detection method with the analytes to be determined in a sample as immobilized specific binding partners” (priority 2002, published 2005):
# System: Phospho-p44/42 MAP kinase (pErk2)
# Assay: Cell lysate array on evanescent field sensor platform, detection with antibody A3
# Format: cell-based, human
# Settings: Jurkat cells, staurosporine 10 μM, 180 min
# Experimental: Human T-cell cultures (Jurkat, DMZ # ACC282) are utilized for the detection of biologically relevant protein analytes in “nature-identical” samples. These cells are cultivated at 37° C. in a solution containing RPMI 1640, 10 % FCS (fetal calf serum), 2 mM glutamine, 50 U/ml penicillin, 50 μg/ml streptamycine (cell density at about 0.5−×10^6−1.0×10^6 cells/ml).
# Then the cell cultures treated as described above and the untreated cell cultures, respectively, are cooled to 4° C. and formed to pellets by centrifugation at a centrifugal force of 350×g (number of cells at about 10^7).The cells here are simply separated from the medium, without damage to the cells. […]
# The fluorescence signals from the various arrays of measurement areas undergo automatic sequential measurement using a ZeptoREADER™ (Zeptosens AG, Benkenstrasse 254, CH-4108 Witterswil). […] Then, for each array, images of the fluorescence signals from the corresponding array are generated, wherein the user can select different exposure times and the number of images to be generated. In the case of measurements for the present example, the excitation wavelength is 633 nm, and the detection of the fluorescence light at the fluorescence wavelength of Cy5 is performed using a cooled camera, an interference filter (transmission 670 nm ±20 nm) for suppression of scattered light being positioned in front of the lens of the camera. […]
smiles,measurement,value
"CN[C@@H]1C[C@H]2O[C@@](C)([C@@H]1OC)n1c3ccccc3c3c4c(c5c6ccccc6n2c5c31)C(=O)NC4 [staurosporin, staurosporine]",pErk2 signal of the nonstimulated control sample compared with the sample treated with staurosporin,only slightly higher
